Common to all, as to type: cell-based, human
Assay [1] concerns JEG-3 choriocarcinoma cells. Put plainly: HLA-G protein by ELISA after progesterone treatment. The conditions noted are these: progesterone doses from 10 ng/ml, 24 hours. The method, then:
(§1) Methods. Purified cytotrophoblasts were prepared from first trimester placental tissue by standard techniques. JEG-3 choriocarcinoma cells were cultured in RPMI-1640 medium containing 10% FCS for three days. The cells were then treated with various doses of progesterone for 24 hours. Cell lysates and conditioned media were prepared for ELISA and total RNA was extracted for PCR. The ELISA was conducted according to the invention, using the 3C/G4 and 2C/C8 anti-HLA-G monoclonal antibodies. HLA-G protein, purified by immunoaffinity columns from first trimester placental tissue, was used as standard. The sensitivity of the ELISA was 20 ng/ml and assay variation was less than 10%. Quantitative RT-PCR was performed by using specific primers for HLA-G. Results were assessed for statistical significance using one-way analysis of variance.

The subject of assay [2] is cytotrophoblasts (placenta cell culture). The description is as above. The conditions noted are these: progesterone 100 ng and 1000 ng/ml, 24 hours. The method, then: as §1
Assay [3] deals with JEG-3 choriocarcinoma cells. Put plainly: HLA-G mRNA by quantitative RT-PCR after progesterone treatment. The method, then: as §1
For assay [4], the system named is cytotrophoblast cells. The assay is described as above. The method, then:
as §1

1 compound from patent US6613538B2, “Detection of HLA-G” (priority 1999, dated 2003) can be followed below.

For the compound `CC(=O)[C@H]1CC[C@H]2[C@@H]3CCC4=CC(=O)CC[C@]4(C)[C@H]3CC[C@]12C` [progesterone], in assay [1], the “HLA-G concentration in JEG-3 cell lysate” value was “significant increase” and the “HLA-G concentration in JEG-3 conditioned medium” value is “significant increase”. Also, the “HLA-G protein in placenta cell culture” value in assay [2] was “significantly increased”. Besides, the “HLA-G mRNA levels in JEG-3 cells” value in assay [3] (after progesterone treatment, RT-PCR) was “increase of HLA-G mRNA levels”. For the same compound, in assay [3] (progesterone 1000 ng/ml, cell type not specified in the sentence (JEG-3 and cytotrophoblast cells tested)), the “HLA-G mRNA levels at 1000 ng/ml versus 10 and 100 ng/ml” value is listed as “significantly higher HLA-G mRNA levels”. Besides, in assay [4], the “HLA-G mRNA levels in cytotrophoblast cells” value is reported as “increase of HLA-G mRNA levels”.
